The structures appear in SMILES notation. Converted amounts (≈) assume the structure as drawn. Bounds are passed on as bounds.

Assay [1] relates to Puccinia recondita tritici = Puccinia triticina. The assay can be described thus: Fungicidal activity vs. leaf rust on wheat plants. The class given is in vivo. Particulars: 50 ppm spray on wheat (Yuma), inoculated the following day, evaluated 7-9 days later; read-out: Puccinia Rating (% Disease Control @ 50 ppm). The source says: D. Evaluation of Fungicidal Activity Vs. Leaf Rust (Causal Agent Puccinia recondita Tritici=Puccinia triticina; Bayer code PUCCRT). […] Each pot contained 3-8 seedlings. These plants were sprayed until wet with the formulated test compounds. The compounds were formulated at 50 ppm in 10 vol. % acetone plus 90 vol. % Triton X water (deionized water 99.99 wt %+0.01 wt % Triton X100), giving a “formulated test compound.” Formulated test compounds were applied to plants using a turn table sprayer fitted with two opposing air atomization nozzles which delivered approximately 1500 L/ha of spray volume. On the following day, the leaves were inoculated with an aqueous spore suspension of Puccinia recondita tritici and the plants were kept in high humidity overnight to permit spores to germinate and infect the leaf. The plants were then transferred to a greenhouse until disease developed on untreated control plants. Disease severity was evaluated 7-9 days later, depending on the speed of disease development. In each case of Table 3, the Puccinia rating scale is as follows: […]

For assay [2], the system named is Septoria tritici (ATCC 26517). The assay can be described thus: Minimum Inhibitory Concentration (MIC) vs. Septoria tritici. It is filed as cell-based. Particulars: Zymoseptoria tritici, ATCC26517, 168 h; 50% reduction in growth of S. tritici; 22° C., seven days; read-out: Septoria Rating (MIC). The protocol: C. Minimum Inhibitory Concentration (MIC) vs. Septoria tritici Compounds were assessed for their ability to inhibit the growth of a common strain of the fungal plant pathogen Septoria tritici (ATCC 26517) using a procedure based on a Clinical and Laboratory Standards Institute (CLSI) microdilution assay protocol for filamentous fungi. Stock solutions of the test compounds and standards were prepared in DMSO at 6400 μg/mL. Each stock solution was used to prepare a 2-fold dilution series ranging from 16 to 0.016 μg/mL (total of 11 compound concentrations) in RPMI-1640 (Roswell Park Memorial Institute) medium containing 3-(N-morpholino)propanesulfonic acid (MOPS) buffer and 2% DMSO. A 100 μL aliquot of the dilutions was added to columns 1 (16 μg/mL compound) through 11 (0.016 μg/mL compound) of a 96-well microtiter plate. This format was replicated in a second row of the microtiter plate. Thus, each microtiter plate could include 11 concentrations of four test or control compounds replicated twice. A 100 μL aliquot of RPMI-1640/MOPS/2% DMSO medium was added to column 12 (no compound control) of the microtiter plate. A fresh culture of S. tritici was used to prepare a solution of approximately 5×10^4 colony-forming units per milliliter (cfu/mL) in RPMI/MOPS medium without DMSO. A 100 μL aliquot of this solution was added to all 96 wells in the microtiter plate. […] The assay plates were incubated at 22° C. for seven days in the dark without shaking. […] In each case of Table 3, the Septoria rating scale is as follows: […]

Usually MIC stands for the lowest concentration found to suppress growth. Take `N#Cc1ncc(Oc2ccc(C(F)(F)C(O)(Cn3cnnn3)c3ccc(F)cc3F)nc2)cn1` (stereo not drawn) [Compound 100, 5-((6-(2-(2,4-difluorophenyl)-1,1-difluoro-2-hydroxy-3-(1H-tetrazol-1-yl)propyl)pyridin-3-yl)oxy)pyrimidine-2-carbonitrile]: the pest or weed control at 50 ppm in assay [1] fell in the range of 60 to 79%. Also, the MIC in assay [2] fell in the range of 0.5 to 1.5 µg/mL (≈ 1.06 to 3.18 µM). On to `CC#CCOc1ccc(C(F)(F)C(O)(Cn2ncnn2)c2ccc(F)cc2F)nc1` (stereo not drawn) [Compound 33, 1-(5-(But-2-yn-1-yloxy)pyridin-2-yl)-2-(2,4-difluorophenyl)-1,1-difluoro-3-(2H-tetrazol-2-yl)propan-2-ol], for which the MIC in assay [2] was greater than 4 µg/mL. As to `N#Cc1ccc(CSc2ccc(C(F)(F)C(O)(Cn3ncnn3)c3ccc(F)cc3F)nc2)c(F)c1` (stereo not drawn) [Compound 16, 4-(((6-(2-(2,4-Difluorophenyl)-1,1-difluoro-2-hydroxy-3-(2H-tetrazol-2-yl)propyl)pyridin-3-yl)thio)methyl)-3-fluorobenzonitrile], the MIC in assay [2] was in the range of 1.5 to 4 µg/mL (≈ 2.89 to 7.71 µM). In the case of `N#CCOc1ccc(C(F)(F)C(O)(Cn2cnnn2)c2ccc(F)cc2F)nc1` (stereo not drawn) [Compound 29, 2-((6-(2-(2,4-Difluorophenyl)-1,1-difluoro-2-hydroxy-3-(1H-tetrazol-1-yl)propyl)pyridin-3-yl)oxy)acetonitrile], in assay [2], the minimal inhibitory concentration (MIC) is 1.5 to 4 µg/mL (≈ 3.67 to 9.8 µM). On the same count and under the same terms, the figure for `N#Cc1ccc(COc2ccc(C(F)(F)C(O)(Cn3ncnn3)c3ccc(F)cc3F)nc2)s1` (stereo not drawn) [Compound 74, 5-(((6-(2-(2,4-Difluorophenyl)-1,1-difluoro-2-hydroxy-3-(2H-tetrazol-2-yl)propyl)pyridin-3-yl)oxy)methyl)thiophene-2-carbonitrile] is greater than 4 µg/mL; for `N#Cc1ccc(COc2ccc(C(F)(F)C(O)(Cn3ncnn3)c3ccc(F)cc3F)nc2)c(F)c1` (stereo not drawn) [Compound 58, 4-(((6-(2-(2,4-Difluorophenyl)-1,1-difluoro-2-hydroxy-3-(2H-tetrazol-2-yl)propyl)pyridin-3-yl)oxy)methyl)-3-fluorobenzonitrile] it is 1.5 to 4 µg/mL (≈ 2.99 to 7.96 µM); for `OC(Cn1ncnn1)(c1ccc(F)cc1F)C(F)(F)c1ccc(OCc2ccccc2)cn1` (stereo not drawn) [Compound 31, 1-(5-(Benzyloxy)pyridin-2-yl)-2-(2,4-difluorophenyl)-1,1-difluoro-3-(2H-tetrazol-2-yl)propan-2-ol] it is greater than 4 µg/mL.

`OC(Cn1ncnn1)(c1ccc(Cl)cc1F)C(F)(F)c1ccc(OCC(F)(F)F)cn1` (stereo not drawn) [Compound 72, 2-(4-Chloro-2-fluorophenyl)-1,1-difluoro-3-(2H-tetrazol-2-yl)-1-(5-(2,2,2-trifluoroethoxy)pyridin-2-yl)propan-2-ol]: the MIC in assay [2] was greater than 4 µg/mL.

On to `CC(Oc1ccc(C(F)(F)C(O)(Cn2ncnn2)c2ccc(F)cc2F)nc1)C(F)(F)F` (stereo not drawn) [Compound 48, 2-(2,4-Difluorophenyl)-1,1-difluoro-3-(2H-tetrazol-2-yl)-1-(5-((1,1,1-trifluoropropan-2-yl)oxy)pyridin-2-yl)propan-2-ol], for which the MIC in assay [2] was 0.5 to 1.5 µg/mL (≈ 1.07 to 3.22 µM). As for `OC(Cn1cnnn1)(c1ccc(F)cc1F)C(F)(F)c1ccc(Oc2ccc3ccccc3n2)cn1` (stereo not drawn) [Compound 108, 2-(2,4-difluorophenyl)-1,1-difluoro-1-(5-(quinolin-2-yloxy)pyridin-2-yl)-3-(1H-tetrazol-1-yl)propan-2-ol], the MIC in assay [2] is no more than 0.5 µg/mL. The same measure, in the same setting: the figure for `OC(Cn1cnnn1)(c1ccc(F)cc1F)C(F)(F)c1ccc(OCc2ccc(Cl)cc2)cn1` (stereo not drawn) [Compound 4, 1-(5-(4-Chlorobenzyloxy)pyridin-2-yl)-2-(2,4-difluorophenyl)-1,1-difluoro-3-(1H-tetrazol-1-yl)propan-2-ol] is no more than 0.5 µg/mL. Turning to `CC#CCOc1ccc(C(F)(F)C(O)(Cn2cnnn2)c2ccc(Cl)cc2F)nc1` (stereo not drawn) [Compound 63, 1-(5-(But-2-yn-1-yloxy)pyridin-2-yl)-2-(4-chloro-2-fluorophenyl)-1,1-difluoro-3-(1H-tetrazol-1-yl)propan-2-ol], in assay [2], the MIC is no more than 0.5 µg/mL.

In the case of `N#Cc1ccc(Oc2ccc(C(F)(F)C(O)(Cn3ncnn3)c3ccc(Cl)cc3F)nc2)cc1F` (stereo not drawn) [Compound 82, 4-((6-(2-(4-Chloro-2-fluorophenyl)-1,1-difluoro-2-hydroxy-3-(2H-tetrazol-2-yl)propyl)pyridin-3-yl)oxy)-2-fluorobenzonitrile], the minimum inhibitory concentration (MIC) in assay [2] was greater than 4 µg/mL. Still for that read-out and setting: the figure for `N#Cc1ccc(Oc2ccc(C(F)(F)C(O)(Cn3ncnn3)c3ccc(Cl)cc3F)nc2)cc1` (stereo not drawn) [Compound 80, 4-((6-(2-(4-Chloro-2-fluorophenyl)-1,1-difluoro-2-hydroxy-3-(2H-tetrazol-2-yl)propyl)pyridin-3-yl)oxy)benzonitrile] is 1.5 to 4 µg/mL (≈ 3.08 to 8.22 µM); for `N#Cc1ccc(COc2ccc(C(F)(F)C(O)(Cn3ncnn3)c3ccc(Cl)cc3F)nc2)cc1` (stereo not drawn) [Compound 56, 4-(((6-(2-(4-Chloro-2-fluorophenyl)-1,1-difluoro-2-hydroxy-3-(2H-tetrazol-2-yl)propyl)pyridin-3-yl)oxy)methyl)benzonitrile] it is 1.5 to 4 µg/mL (≈ 2.99 to 7.99 µM). `OC(Cn1cnnn1)(c1ccc(F)cc1F)C(F)(F)c1cc(OCc2ccc(F)cc2F)ccn1` (stereo not drawn) [Compound 13, 1-(4-((2,4-Difluorobenzyl)oxy)pyridin-2-yl)-2-(2,4-difluorophenyl)-1,1-difluoro-3-(1H-tetrazol-1-yl)propan-2-ol]: in assay [2], the MIC was 0.5 to 1.5 µg/mL (≈ 1.01 to 3.03 µM). Same read-out and setting: the figure for `OC(Cn1ncnn1)(c1ccc(F)cc1F)C(F)(F)c1ccc(OCc2cc(F)cc(F)c2)cn1` (stereo not drawn) [Compound 36, 1-(5-((3,5-Difluorobenzyl)oxy)pyridin-2-yl)-2-(2,4-difluorophenyl)-1,1-difluoro-3-(2H-tetrazol-2-yl)propan-2-ol] is greater than 4 µg/mL; for `CC#CCOc1ccc(C(F)(F)C(O)(Cn2ncnn2)c2ccc(Cl)cc2F)nc1` (stereo not drawn) [Compound 64, 1-(5-(But-2-yn-1-yloxy)pyridin-2-yl)-2-(4-chloro-2-fluorophenyl)-1,1-difluoro-3-(2H-tetrazol-2-yl)propan-2-ol] it is greater than 4 µg/mL. Take `OC(Cn1ncnn1)(c1ccc(F)cc1F)C(F)(F)c1ccc(OCC2CC2)cn1` (stereo not drawn) [Compound 40, 1-(5-(Cyclopropylmethoxy)pyridin-2-yl)-2-(2,4-difluorophenyl)-1,1-difluoro-3-(2H-tetrazol-2-yl)propan-2-ol]: in assay [2], the MIC is greater than 4 µg/mL. In the case of `OC(Cn1ccnn1)(c1ccc(F)cc1F)C(F)(F)c1ccc(OCc2cccc(F)c2F)cn1` (stereo not drawn) [Compound 44, 1-(5-((2,3-Difluorobenzyl)oxy)pyridin-2-yl)-2-(2,4-difluorophenyl)-1,1-difluoro-3-(1H-1,2,3-triazol-1-yl)propan-2-ol], in assay [2], the MIC is 1.5 to 4 µg/mL (≈ 3.03 to 8.09 µM). Still for that read-out and setting: in the case of `OC(Cn1ncnn1)(c1ccc(F)cc1F)C(F)(F)c1ccc(OCc2ccccn2)cn1` (stereo not drawn) [Compound 38, 2-(2,4-Difluorophenyl)-1,1-difluoro-1-(5-(pyridin-2-ylmethoxy)pyridin-2-yl)-3-(2H-tetrazol-2-yl)propan-2-ol] it was greater than 4 µg/mL. Same read-out and setting: the figure for `CC(C)COc1ccc(C(F)(F)C(O)(Cn2ncnn2)c2ccc(Cl)cc2F)nc1` (stereo not drawn) [Compound 70, 2-(4-Chloro-2-fluorophenyl)-1,1-difluoro-1-(5-isobutoxypyridin-2-yl)-3-(2H-tetrazol-2-yl)propan-2-ol] is greater than 4 µg/mL. Still for that read-out and setting: in the case of `OC(Cn1cnnn1)(c1ccc(F)cc1F)C(F)(F)c1ccc(Oc2nc3cc(Cl)ccc3s2)cn1` (stereo not drawn) [Compound 109, 1-(5-((5-chlorobenzo[d]thiazol-2-yl)oxy)pyridin-2-yl)-2-(2,4-difluorophenyl)-1,1-difluoro-3-(1H-tetrazol-1-yl)propan-2-ol] it was no more than 0.5 µg/mL. In the case of `N#Cc1ccc(Oc2ccc(C(F)(F)C(O)(Cn3ncnn3)c3ccc(F)cc3F)nc2)c(F)c1` (stereo not drawn) [Compound 90, 4-((6-(2-(2,4-Difluorophenyl)-1,1-difluoro-2-hydroxy-3-(2H-tetrazol-2-yl)propyl)pyridin-3-yl)oxy)-3-fluorobenzonitrile], in assay [2], the MIC was 1.5 to 4 µg/mL (≈ 3.07 to 8.19 µM).

For `OC(Cn1cnnn1)(c1ccc(F)cc1F)C(F)(F)c1ccc(Oc2nc3ccc(Cl)cc3s2)cn1` (stereo not drawn) [Compound 110, 1-(5-((6-chlorobenzo[d]thiazol-2-yl)oxy)pyridin-2-yl)-2-(2,4-difluorophenyl)-1,1-difluoro-3-(1H-tetrazol-1-yl)propan-2-ol], the MIC in assay [2] is no more than 0.5 µg/mL. In the case of `OC(Cn1cnnn1)(c1ccc(F)cc1F)C(F)(F)c1ccc(OCc2ccc(OCC(F)(F)F)cc2)cn1` (stereo not drawn) [Compound 20, 2-(2,4-Difluorophenyl)-1,1-difluoro-3-(1H-tetrazol-1-yl)-1-(5-((4-(2,2,2-trifluoroethoxy)benzyl)oxy)pyridin-2-yl)propan-2-ol], the MIC in assay [2] was no more than 0.5 µg/mL.
